Laboratory results: patent publication US20230220206A1, “REJUVENATING AGENTS FOR ASPHALT RECYCLING” (BASF SE, priority 2020, published 2023)
Like-named read-outs stand apart in the source and are kept apart here. Blank lines part the entries; values can stand above or below the compound they belong to.

Key:
[1] = bitumen 20/30 + 5% compound
[2] = Softening point ring & ball of rejuvenated bitumen; conditions: bitumen 20/30 rejuvenated with 5% of the compound, 180° C., 30 minutes
[3] = MSCR test, percentage elastic recovery; format: physicochemical; conditions: bitumen 20/30 + 5% compound
[4] = labelling of the product itself; — = none; cited from earlier work
[5] = Ageing index (RTFOT ageing) of rejuvenated polymer-modified bitumen; format: physicochemical; conditions: Olexobit 45 + 5% compound; viscosity after ageing divided by viscosity before ageing
Text: (§1) Herewith, it will be shown that the positive effects of the here claimed rejuvenating agents can also be applied to PmB, in this case Olexobit 45. Olexobit 45 was therefore rejuvenated according to the procedure of Example 1.

[6] = BBR of rejuvenated polymer-modified bitumen; format: physicochemical; conditions: Olexobit 45 + 5% compound
Protocol: (§2) Different bitumen samples were rejuvenated as in Example 1, and the BBR values S (flexural creep stiffness) and m […] were evaluated at −16° C. The results were compared to the not rejuvenated bitumen sample as well as to the bitumen rejuvenated with the benchmark RheoFalt® HP-AM (Comp. 1.3).

[7] = MSCR elastic recovery of rejuvenated aged bitumen; format: physicochemical; conditions: aged bitumen 50/70 BP + 5% compound
[8] = MSCR elastic recovery of rejuvenated polymer-modified bitumen; format: physicochemical; conditions: Olexobit 45 + 5% compound
[9] = Softening point of rejuvenated aged bitumen; format: physicochemical; conditions: aged bitumen 50/70 PCK Schwedt + 5% compound
[10] = format: physicochemical; conditions: aged bitumen 50/70 PCK Schwedt + 5% compound
[11] = Low temperature performance, bending beam rheometer (BBR) at −16° C.; format: physicochemical
Protocol: as §2

[12] = MSCR elastic recovery of rejuvenated RAP bitumen; format: physicochemical; conditions: bitumen extracted from RAP + 5% compound
[13] = Softening point of rejuvenated polymer-modified bitumen; format: physicochemical; conditions: Olexobit 45 + 5% compound
[14] = MSCR elastic recovery of rejuvenated aged bitumen; format: physicochemical; conditions: aged bitumen 50/70 PCK Schwedt + 5% compound
[15] = format: physicochemical; conditions: aged bitumen 50/70 BP + 5% compound
[16] = format: physicochemical; conditions: Olexobit 45 + 5% compound
[17] = Force ductility of rejuvenated polymer-modified bitumen; format: physicochemical; conditions: Olexobit 45 + 5% compound
Text: as §1

[18] = format: physicochemical; conditions: bitumen extracted from RAP + 5% compound
[19] = Softening point of rejuvenated aged bitumen; format: physicochemical; conditions: aged bitumen 50/70 BP + 5% compound
[20] = Softening point of rejuvenated RAP bitumen; format: physicochemical; conditions: bitumen extracted from RAP + 5% compound
[21] = Loss tangent from DSR frequency sweep at 60° C.; format: physicochemical
Text: In addition, it could be shown that additives according to the present invention perform most of the times better than the common benchmarks according to the standard testing techniques for the low, mid and high temperature range. What cannot be extracted from these measurements however is an indication of the working mechanism.

[22] = TD NMR relaxation time measurements (SE-CPMG, multicomponent fitting); format: physicochemical; conditions: for 1/<1/T2e>: harmonic average relaxation time of the mobile components
Text: TD NMR, also known as NMR relaxometry, is a known NMR technique and relies on measuring the relaxation times of the nuclear spin system instead of frequency-domain spectra. […] Also, sample preparation is much simpler as there are no concerns about sample homogeneity and no solvents are needed.
Like that, a clear distinction between protons in a solid, amorphous and liquid component can be made with good accuracy.
Bitumen 20/30 was rejuvenated with some of the here claimed rejuvenating agents according to example 1. The pure bitumen 20/30 as well as the rejuvenated bitumen 20/30 samples were then analyzed by TD NMR. To do so, all samples were heated up to 80° C. to allow filling of the samples into NMR tubes. After that, TD NMR measurements at 30° C., 80° C. and 140° C. were conducted using the SE-CMPG sequence. This sequence consists of a solid echo combined with a so-called CPMG (Carr-Purcell-Meiboom-Gill) train of subsequent spin echoes with alternating phase and is capable of recording the decay of coherence in the transverse nuclear magnetization over about 5 orders of magnitude in time. Depending on the measurement temperature, the experimental data were then fitted with semi-empirically selected multicomponent models involving several Gaussian and exponential components:
S(t)=[pg1 exp(−(t/T2g1)^2)+pg2 exp(−(t/T2g2)^2)]+pe1 exp(−t/T2e1)[pe2 exp(−t/T2e2)+pe3 exp(−t/T2e3)]
In order to assess the effect of temperature on the molecular mobility of the bitumen, experiments were conducted at temperatures of 30° C., 80° C. and 140° C., and the following models turned out to provide adequate fits of the respective normalized signal decay curves: • two Gaussians and one exponential at 30° C., • two Gaussians and two exponentials at 80° C., • three exponentials at 140° C.
From the fitting, different values can be obtained: • The p values (pg1, pg2, pe1, pe2 and pe3), indicating the signal fraction of the individual component scaled in the range from 0 to 1 • The T2 values (T2g1, T2g2, T2e1, T2e2 and T2e3), indicating the relaxation times that correspond to each of the individual components. The longer the relaxation time, the higher the molecular mobility of the respective component • In addition to the values T2e1, T2e2 and T2e3, we also calculated the average relaxation time of the mobile components, 1/<1/T2e>, for the temperatures at which more than one mobile component exist (80 and 140° C.). 1/<1/T2e> Is calculated as the harmonic average of the relaxation times involved:
[formula] • The type of the component, those being: • g1: the rigid component • g2: the partially mobile component • e1, e2 and e3: mobile components with increasingly high local molecular mobilities
It is believed that the rigid component g1 is directly correlated with the amount of the asphaltene aggregates. The mobile component(s) on the other hand can be attributed to the maltene phase.

[23] = aged bitumen 50/70 BP + 5% compound, lowest frequency
[24] = aged bitumen 50/70 PCK Schwedt + 5% compound, lowest frequency
[25] = bitumen 20/30 + 5% compound, lowest frequency (0.01 rad/s)
[26] = bitumen extracted from RAP + 5% compound, lowest frequency
[27] = aged bitumen 50/70 BP + 5% compound
[28] = 30° C., bitumen 20/30 + additive
[29] = 80° C., bitumen 20/30 + additive
[30] = 140° C., bitumen 20/30 + additive

Compound: CC(COCC1CO1)(COCC1CO1)c1ccccc1 (stereo not drawn) [2-Methyl-2-phenyl-1,3-propandiol bis glycidylether]
- η(135° C.) [mPas] [1]: 900 mPas
- SP [° C.] (softening point) [2]: 52.0 °C
- MSCR % Rec. (0.1 kPa) [3]: 8%
- MSCR % Rec. (1.6 kPa) [3]: 3%
- MSCR % Rec. (3.2 kPa) [3]: 1%

Compound: CCCCCCCCCCCCc1ccc(S(=O)(=O)O)cc1 [Dodecylbenzene sulfonic acid]
- tox (toxicology/eco toxicology) [4]: Harmful
- η(135° C.) [mPas] [1]: 2,100 mPas
- SP [° C.] (softening point) [2]: 64.0 °C
- MSCR % Rec. (0.1 kPa) [3]: 27%
- MSCR % Rec. (1.6 kPa) [3]: 25%
- MSCR % Rec. (3.2 kPa) [3]: 21%

Compound: CC(C)(COCC1CO1)COCC1CO1 (stereo not drawn) [Neopentylglycol bis glycidylether]
- tox (toxicology/eco toxicology) [4]: Irritating
- η(135° C.) [mPas] [1]: 1,050 mPas
- SP [° C.] (softening point) [2]: 52.0 °C
- MSCR % Rec. (0.1 kPa) [3]: 11%
- MSCR % Rec. (1.6 kPa) [3]: 5%
- MSCR % Rec. (3.2 kPa) [3]: 2%

Compound: CC(C)CCCCCCOC(=O)c1ccccc1C(=O)OCCCCCCC(C)C [Palatinol ® DINP, diisononyl phthalate]
- η(135° C.) [mPas] [1]: 950 mPas
- SP [° C.] (softening point) [2]: 52.0 °C
- MSCR % Rec. (0.1 kPa) [3]: 9%
- MSCR % Rec. (1.6 kPa) [3]: 3%
- MSCR % Rec. (3.2 kPa) [3]: 1%

The remaining lines, values ahead:

- AI (ageing index) [5]: 2.1
- BBR S-value [MPa] [6]: 80 MPa
- BBR m-value [6]: 0.43
- η(135° C.) [mPas] [1]: 950 mPas
- MSCR % Rec. (0.1 kPa) [7]: 14%
- MSCR % Rec. (1.6 kPa) [7]: 10%
- MSCR % Rec. (3.2 kPa) [7]: 5%
- MSCR % Rec. (0.1 kPa) ([8]; 0.1 kPa): 19%
- MSCR % Rec. (1.6 kPa) ([8]; 1.6 kPa): 7%
- MSCR % Rec. (3.2 kPa) ([8]; 3.2 kPa): 4%
- SP [° C.] [9]: 56.0 °C
- η(135° C.) [mPas] [10]: 1,000 mPas
- S-value [MPa] (flexural creep stiffness) ([11]; bitumen 20/30 + 5% compound): 90 MPa
- m-value ([11]; bitumen 20/30 + 5% compound): 0.41
- MSCR % Rec. (0.1 kPa) [12]: 16%
- MSCR % Rec. (1.6 kPa) [12]: 12%
- MSCR % Rec. (3.2 kPa) [12]: 7%
- SP [° C.] (softening point) [2]: 52.0 °C
- SP [° C.] [13]: 49.0 °C
- MSCR % Rec. (0.1 kPa) [14]: 11%
- MSCR % Rec. (1.6 kPa) [14]: 7%
- MSCR % Rec. (3.2 kPa) [14]: 3%
- η(135° C.) [mPas] [15]: 1,000 mPas
- η(135° C.) [mPas] [16]: 700 mPas
- Force Ductility Fmax [N] [17]: 12 N
- Force Ductility W [J/cm^2] [17]: 1.0 J/cm^2
- η(135° C.) [mPas] [18]: 1,200 mPas
- SP [° C.] [19]: 56.5 °C
- SP [° C.] [20]: 59.0 °C
- tan δ [21, 23]: 35
- tan δ [21, 24]: 40
- tan δ [21, 25]: 45
- tan δ [21, 26]: 25
- MSCR % Rec. (0.1 kPa) [3]: 10%
- MSCR % Rec. (1.6 kPa) [3]: 4%
- MSCR % Rec. (3.2 kPa) [3]: 1%
Compound: CC(C)CCCCCCOC(=O)C1CCCCC1C(=O)OCCCCCCC(C)C (stereo not drawn) [Hexamoll ® DINCH, diisononyl cyclohexane-1,2-dicarboxylate]

- η(135° C.) [mPas] [1]: 800 mPas
- MSCR % Rec. (0.1 kPa) [7]: 5%
- MSCR % Rec. (1.6 kPa) [7]: 2%
- MSCR % Rec. (3.2 kPa) [7]: 0%
- SP [° C.] [9]: 50.0 °C
- η(135° C.) [mPas] [10]: 700 mPas
- S-value [MPa] (flexural creep stiffness) [11, 27]: 90 MPa
- m-value [11, 27]: 0.43
- S-value [MPa] (flexural creep stiffness) ([11]; bitumen 20/30 + 5% compound): 90 MPa
- m-value ([11]; bitumen 20/30 + 5% compound): 0.44
- MSCR % Rec. (0.1 kPa) [12]: 7%
- MSCR % Rec. (1.6 kPa) [12]: 3%
- MSCR % Rec. (3.2 kPa) [12]: 1%
- SP [° C.] (softening point) [2]: 47.0 °C
- MSCR % Rec. (0.1 kPa) [14]: 5%
- MSCR % Rec. (1.6 kPa) [14]: 1%
- MSCR % Rec. (3.2 kPa) [14]: 0%
- η(135° C.) [mPas] [15]: 950 mPas
- T2e1 [22, 28]: 0.20 ms
- T2g1 [22, 28]: 0.016 ms
- T2g2 [22, 28]: 0.045 ms
- pe1 ([22]; 30° C., mobile component, bitumen 20/30 + additive): 0.44
- pg2 ([22]; 30° C., partially mobile component, bitumen 20/30 + additive): 0.17
- pg1 ([22]; 30° C., signal fraction of rigid component, bitumen 20/30 + additive): 0.38
- T2e1 [22, 29]: 0.50 ms
- T2e2 [22, 29]: 2.53 ms
- T2g1 [22, 29]: 0.017 ms
- T2g2 [22, 29]: 0.054 ms
- pe1 [22, 29]: 0.48
- pe2 [22, 29]: 0.35
- pg1 [22, 29]: 0.09
- pg2 [22, 29]: 0.074
- 1/<1/T2e> ([22]; 80° C.): 0.76 ms
- T2e1 [22, 30]: 0.21 ms
- T2e2 [22, 30]: 4.76 ms
- T2e3 [22, 30]: 25.72 ms
- pe1 [22, 30]: 0.18
- pe2 [22, 30]: 0.47
- pe3 [22, 30]: 0.34
- 1/<1/T2e> ([22]; 140° C.): 1.0 ms
- η(135° C.) [mPas] [18]: 850 mPas
- SP [° C.] [19]: 51.0 °C
- SP [° C.] [20]: 53.0 °C
- tan δ [21, 23]: 80
- tan δ [21, 24]: 100
- tan δ [21, 25]: 80
- tan δ [21, 26]: 70
- MSCR % Rec. (0.1 kPa) [3]: 4%
- MSCR % Rec. (1.6 kPa) [3]: 1%
- MSCR % Rec. (3.2 kPa) [3]: 0%
Compound: CCCCCCCCCCCCN1CCCC1=O [N-Dodecyl pyrrolidone]

- η(135° C.) [mPas] [1]: 950 mPas
Compound: Dodecenyl succinic acid anhydride

- η(135° C.) [mPas] [1]: 1,000 mPas
- SP [° C.] (softening point) [2]: 57.0 °C
- MSCR % Rec. (0.1 kPa) [3]: 16%
- MSCR % Rec. (1.6 kPa) [3]: 10%
- MSCR % Rec. (3.2 kPa) [3]: 5%
Compound: Polyethylenglycol bis glycidylether
